Measurements taken from paper PMC11123956, “Nobiletin Stimulates Adrenal Hormones and Modulates the Circadian Clock in Mice” (Nutrients, 2024).

Tested on: serum ACTH
Experiment: Serum ACTH ELISA
Type: in vivo, mice
Conditions: an hour after injection (50 or 100 mg/kg)
Protocol: Serum corticosterone, adrenaline, and adreno-corticotropic hormone (ACTH) levels, and corticotropin releasing factor (CRF) in the hypothalamus, were measured using enzyme-linked immunosorbent assay (ELISA). A corticosterone ELISA kit (Cayman Chemical Company, Ann Arbor, MI, USA), an adrenaline ELISA kit (Abcam, Cambridge, UK), an ACTH ELISA kit (Phoenix Pharmaceuticals Inc., Burlingame, CA, USA), and a CRF ELISA kit (Yanaihara Institute Inc., Shizuoka, Japan) were used. Assays were conducted according to the manufacturer’s instructions. Blood samples were collected from the mice at ZT4, 5, and 7 after the administration of nobiletin at ZT3 (10 mg/kg and 100 mg/kg, in Figure 3A,B). Blood glucose levels were measured using a Glucose PILOT kit (Aventir Biotech, LLC, Carlsbad, CA, USA). The range of blood glucose that could be precisely measured with the kit was 20–600 mg/dL. Before measurement, we administered nobiletin (100 mg/kg body weight) to the mice, after 4 h fasting. Blood was collected from the tail vein of each mouse for measurement. The measurements were conducted at 0, 15, 30, 45, 60, and 90 min after reagent administration in Figure 3C. Samples were collected one hour after nobiletin treatment (50 or 100 mg/kg; Figure 3D,E), or 2 or 4 h after treatment in Figure 3F. […]

COc1ccc(-c2cc(=O)c3c(OC)c(OC)c(OC)c(OC)c3o2)cc1OC [nobiletin]
serum ACTH: did not change significantly
